Results reported in PMC7956476, “Quinoline Functionalized Schiff Base Silver (I) Complexes: Interactions with Biomolecules and In Vitro Cytotoxicity, Antioxidant and Antimicrobial Activities” (Molecules, 2021).

Tests used:
calf thymus DNA (CT-DNA) = test: CT-DNA electronic absorption titration (Wolfe–Shimer); assay type: binding; settings: for CT-DNA-Cmp. Kb (M^−1) × 10^5: intrinsic binding constant, absorption titration, PBS pH 7.2
Description: The interaction of the L1–L5 and complexes Q1–Q15 with calf thymus-DNA was carried out in a Phosphate buffer saline solution pH 7.2 stored at 4 °C. The DNA stock solution was prepared by dissolving CT-DNA sodium salt in Phosphate buffer saline solution with continuous stirring overnight. It was filtered and stored at 4 °C and used within four days. […] A fixed amount of the L1–L5 and complexes Q1–Q15 (50 µM) were prepared by dissolving an appropriate amount in DMSO. […] Therefore, in all the experimental of the interaction of L1–L5 and complexes Q1–Q15 with biomolecules, the final concentration of DMSO in the incubation mixture was ~2% (v/v).
The binding modes of L1–L5 and complexes Q1–Q15 to CT-DNA were characterized through electronic absorption titration by varying concentrations of CT-DNA (0–30 µM) in phosphate buffer saline solution against fixed concentrations (20 µM) of L1–L5 and complexes Q1–Q15. […] The absorbance of CT-DNA is cancelled by adding equivalent amounts of CT-DNA to both the tested compounds and the reference solutions.

CT-DNA-EB adduct = test: Fluorescence competitive displacement of ethidium bromide from CT-DNA; assay type: binding, calf; settings: for CT-DNA-EB-Complex Ksv (M^−1) × 10^4: Stern–Volmer quenching constant, EB displacement, 25 °C; for CT-DNA-EB-Complex Kq (M^−1S^−1) × 10^12: bimolecular quenching constant, Ksv = Kqτo, τo 10^−8 s; for CT-DNA-EB-Complex Kbin (M^−1) × 10^5: binding constant from double-logarithmic plot
From the text: The Stern–Volmer plot approach was used based on the fact that the Stern–Volmer plots for Q1–Q15 (Figure 5c), were linear an indication of only one mechanism for the quenching fluorescence, i.e., either dynamic or static. […] (1) Ksv=Kqτo where Ksv, Kq, and τo represent Stern–Volmer quenching constant, bimolecular quenching constant, and an average lifetime of the fluorophore in the absence of the quencher, respectively. τₒ normally takes about 10^−8 s in biomacromolecules.
The double-logarithmic Equation (2) was used in determining the binding constant of complexes Q1–Q15 and CT-DNA. (2) logFo−F/F=logKb+n logQ
A competitive displacement study was carried out using fluorescence spectroscopy between CT-DNA pre-treated with ethidium bromide (EB) and complexes Q1–Q15 to establish the complexes′ actual mode of binding to CT-DNA. […] The competitive luminescence displacement assay was done using a modified method. Pre-treated 15 µM solution of EB with 15 µM of CT-DNA was prepared in a phosphate buffer of pH 7.2 and left to equilibrate for 30 min. Keeping CT-DNA-EB concentrations constant, different concentrations (0–20 µM) of the complexes were added at 8 min incubation interval at room temperature. The fluorescence quenching ability of CT-DNA bound EB by the complexes were recorded in the wavelength range of 530–700 nm with an excitation wavelength at 525 nm at 25 °C. (6) Fo/F=1+KSVQ=1+KqτoQ
A Stern–Volmer (Equation (6)) was used to evaluate the CT-DNA-EB fluorescence quenching of the complexes. Where Fo and F denote the relative fluorescence intensities of CT-DNA in the absence and presence of the quencher, Ksv, Stern–Volmer quenching constant, [Q], quencher concentration, Kq, bimolecular quenching constant and τo, average lifetime of the fluorophore in the absence of the quencher which is typically equal to 10^−8 s in biomacromolecules.

[1] = Ferric reducing antioxidant power (FRAP) assay; assay type: biochemical; settings: done in triplicate
From the text: Antioxidants are important in protecting the human body against damage by reactive oxygen species (ROS). Accumulation of ROS in the cells may lead to damage of the DNA, RNA, and proteins which subsequently leads to several physiological disorders such as cardiovascular disease, diabetes, rheumatism, atherosclerosis, cancer, aging and cell death. […] The free radical scavenging ability of all ligands and complexes in this study were investigated using ferric reducing antioxidant power (FRAP). In antioxidant studies, FRAP assay is often preferred because it is simple, fast, economical, and direct in antioxidant measurement. FRAP assay is based on the electron-donating ability of an antioxidant compound. This involves the reduction of a colorless Fe^3+ tripyridyltriazine complex (Fe^3+ (TPTZ)) to an intense blue-colored Fe^2+ tripyridyltriazine complex (Fe^2+ (TPTZ)) by the electron-donating antioxidants at low pH [69]. The reducing power is to determine the reductive ability of the test compounds.
Antioxidant activity studies of L1–L5 and Q1–Q15 were done using ferric reducing antioxidant power (FRAP) assay. The ferric reducing antioxidant power assay is often used to evaluate the ability of an antioxidant to donate an electron. […] The resulting mixture was incubated at 50 °C for 20 min, and 2.5 mL of 10% trichloroacetic acid was added to acidify the mixture. After that, 1 mL of the acidified mixture was added to 1 mL of distilled water and 0.5 mL of 0.1% FeCl3. The absorbance of the resulting solution was then measured at 700 nm. The antioxidant power of the compounds was expressed as a percentage of ferric reducing antioxidant power Ascorbic acid equivalent, as shown in Equation (4). (4) % FRAP =Absorbance of Absorbance of Sample/Absorbance of Ascorbic Acid ×100

[2] = test system: Escherichia coli ATCC 25922; test: Minimum inhibitory concentration (MIC), spotting on Müeller–Hinton agar; assay type: cell-based; settings: Gram − Ve, E. coli, 37 °C, 18 h
Description: (§1) Sterilized Nutrient agar medium was first prepared by dissolving 38 g of Müeller–Hinton agar (MHA) (Biolab, Midrand, Africa) in distilled water (1 L). […] The cooled Agar medium was poured in Petri dishes while ensuring a uniform 4 mm depth of the medium and cooling further to ambient temperature.
(§2) These bacteria were inoculated in a sterilized Nutrient Broth (NB) (Biolab, Midrand, Africa) through streak plate technique and incubated at 37 °C for 18 h. The nutrient broth was sterilized by dissolving 1.3 g in distilled water (100 mL). Ca. 10 mL of the nutrient broth was transferred into a cotton wool-plugged test tubes and wrapped with an aluminium foil. […] Following this was the isolation of a single colony of the bacteria and inoculated into a 10 mL sterile NB which was then incubated in a shaking incubator at 37 °C for 18 h. Each of the bacteria strain concentrations was adjusted with sterile distilled water to get a final concentration of 1.5 × 10^8 cfu/mL, i.e., 0.5 Mc Farland’s Standard using a densitometer (Mc Farland Latvia). The bacteria were lawn inoculated on the set MHA Petri dishes using a sterile cotton swab. Screening of L1–L5 and Q1–Q15 for antibacterial activity was first carried out by spotting 5 µL of their solution (prepared from the dissolution of 1000 µg of the L1–L5 and Q1–Q15 in 1 mL dimethyl sulfoxide (DMSO)) on an MHA petri dish and incubated at 37 °C for 18 h. The antibacterial activity was determined by looking out for a clear zone at the spotting point.

[3] = test system: Salmonella typhimurium ATCC 14026; test: as above; assay type: cell-based; settings: Gram − Ve, S. typhi, 37 °C, 18 h; for MIC: Salmonella enterica, read-out: Minimum inhibitory concentration, ST
Description: as §1, §2

[4] = test system: Pseudomonas aeruginosa ATCC 27853; test: as above; assay type: cell-based; settings: Gram − Ve, P. aeruginosa, 37 °C; for Minimum inhibitory concentration, PA: 18 h; for MIC: Pseudomonas aeruginosa, ATCC27853, 18 h, read-out: Minimum inhibitory concentration, PA
Description: as §1, §2

[5] = test system: Staphylococcus aureus ATCC 700699 (methicillin-resistant); test: as above; assay type: cell-based; settings: Gram + Ve, methicillin-resistant S. aureus, 37 °C, 18 h
Description: as §1, §2

[6] = target: bovine serum albumin (BSA) (Bos taurus, UniProt P02769); test: Albumin binding by absorption spectroscopy titration
From the text: Bovine serum albumin (BSA) was used as the protein standard in this study because of its close resemblance to human serum albumin (HSA), its stability, high solubility, neutrality in many biochemical reactions and low cost. In protein binding study, absorption spectroscopy titration is a known method used in studying the conformational changes in proteins, and this protein is characterized by an intense absorbance peak at 280 nm depicting the microenvironment around tyrosine and tryptophan residue polarity.
The absorbance assay of albumin binding is a very simple method used in identifying the conformational changes in protein. […] A stock solution of bovine serum albumin (BSA) was prepared by dissolving an appropriate amount of BSA in phosphate buffer saline solution (pH 7.2) under constant stirring for 1 h at 25 °C. It was kept at 4 °C and used within four days. […] The stock solution of the complex was prepared by dissolving 1 mmol of the complexes in DMSO. The absorption titration assay was done by adding different concentrations (0–10 µM) of the complexes to a constant BSA concentration (6 µM). The sample solution was incubated after each addition of the concentrations for 10 min at 25 °C before recording the absorbance at λmax 280 nm.

Sequence of bovine serum albumin (BSA) (P02769 25-607): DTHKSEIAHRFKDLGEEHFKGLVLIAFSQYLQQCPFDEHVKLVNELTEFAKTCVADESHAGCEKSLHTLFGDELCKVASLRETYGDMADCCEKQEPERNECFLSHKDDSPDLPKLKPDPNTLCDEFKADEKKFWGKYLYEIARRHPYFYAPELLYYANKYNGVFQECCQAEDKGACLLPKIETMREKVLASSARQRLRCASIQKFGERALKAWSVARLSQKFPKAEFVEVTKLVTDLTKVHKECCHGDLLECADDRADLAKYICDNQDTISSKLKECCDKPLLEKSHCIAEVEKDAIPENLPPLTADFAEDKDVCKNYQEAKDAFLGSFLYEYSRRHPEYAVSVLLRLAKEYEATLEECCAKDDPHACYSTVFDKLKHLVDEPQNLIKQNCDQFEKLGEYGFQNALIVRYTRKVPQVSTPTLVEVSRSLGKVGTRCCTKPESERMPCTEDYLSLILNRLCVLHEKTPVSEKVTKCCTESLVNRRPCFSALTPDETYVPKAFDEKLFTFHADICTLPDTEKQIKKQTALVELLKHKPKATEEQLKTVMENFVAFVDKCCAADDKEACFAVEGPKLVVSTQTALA

| SMILES | CT-DNA-Cmp. Kb (M^−1) × 10^5 (calf thymus DNA (CT-DNA)) | CT-DNA-EB-Complex Ksv (M^−1) × 10^4 (CT-DNA-EB adduct) | CT-DNA-EB-Complex Kq (M^−1S^−1) × 10^12 (CT-DNA-EB adduct) | CT-DNA-EB-Complex Kbin (M^−1) × 10^5 (CT-DNA-EB adduct) | Antioxidant (IC50 mg/mL) FRAP [1] | Minimum inhibitory concentration, EC [2] | Minimum inhibitory concentration, ST [3] | Minimum inhibitory concentration, PA [4] | Minimum inhibitory concentration, MRSA [5] | Protein-Complex Kb (M^−1) × 10^4 [6] | hypochromic shift in the absorption bands on addition of CT-DNA (calf thymus DNA (CT-DNA); absorption titration with CT-DNA) | MIC ([2]; Escherichia coli, ATCC25922, read-out: Minimum inhibitory concentration, EC) | MIC [3] | MIC [4] | MIC ([5]; Staphylococcus aureus, ATCC 700699 / MRSA) |
| --- | --- | --- | --- | --- | --- | --- | --- | --- | --- | --- | --- | --- | --- | --- | --- |
| Cc1ccc(N=Cc2ccc3ccccc3n2)cc1.Cc1ccc(N=Cc2ccc3ccccc3n2)cc1.O=[N+]([O-])[O-].[Ag+] [Complex Q4, [Ag(L4)2]NO3] | 4.00 (M^−1) × 10^5 | 3.50 (M^−1) × 10^4 | 3.50 (M^−1S^−1) × 10^12 | 2.11 (M^−1) × 10^5 | 2.14 ± 0.0035 mg/mL | 12.5 µg/mL | 50 µg/mL | 12.5 µg/mL | 50 µg/mL | 10.3 (M^−1) × 10^4 |  |  |  |  |  |
| C(=NCc1cccs1)c1ccc2ccccc2n1.C(=NCc1cccs1)c1ccc2ccccc2n1.O=S(=O)([O-])C(F)(F)F.[Ag+] [Complex Q15, [Ag(L5)2]CF3SO3] | 4.00 (M^−1) × 10^5 | 2.48 (M^−1) × 10^4 | 2.48 (M^−1S^−1) × 10^12 | 5.29 (M^−1) × 10^5 | 3.35 ± 0.012 mg/mL | 25 µg/mL | 1000 µg/mL | ~0.8 µg/mL | 100 µg/mL | 13.1 (M^−1) × 10^4 |  |  |  |  |  |
| O=S(=O)([O-])C(F)(F)F.[Ag+] [AgCF3SO3, silver trifluoromethanesulfonate, reference compound] | 2.00 (M^−1) × 10^5 | 3.01 (M^−1) × 10^4 | 3.01 (M^−1S^−1) × 10^12 | 1.60 (M^−1) × 10^5 | 0.88 ± 0.054 mg/mL | 50 µg/mL | 12.5 µg/mL | 1000 µg/mL | 1000 µg/mL | 4.46 (M^−1) × 10^4 | 23.64–50.86% |  |  |  |  |
| Cc1ccc(/N=C/c2ccc3ccccc3n2)cc1 [Complex L4, (E)-1-(quinolin-2-yl)-N-(p-tolyl)methanimine] | 1.60 (M^−1) × 10^5 |  |  |  | 4.50 ± 0.0053 mg/mL |  |  |  |  |  |  | 1000 µg/mL | 1000 µg/mL |  |  |
| O=C1O[C@H]([C@@H](O)CO)C(O)=C1O [Ascorbic Acid, Ascorbic acid, reference compound] |  |  |  |  | 2.68 ± 0.11 mg/mL |  |  |  |  |  |  |  |  |  |  |
| c1ccc2nc(-c3nc4ccccc4s3)ccc2c1 [Complex L2, 2-(quinolin-2-yl)benzo[d]thiazole] | 1.50 (M^−1) × 10^5 |  |  |  | 2.29 ± 0.0041 mg/mL |  |  | 100 µg/mL |  |  |  |  |  | 50 to 100 µg/mL |  |
| Clc1ccc(/N=C/c2ccc3ccccc3n2)cc1 [Complex L3, (E)-N-(4-chlorophenyl)-1-(quinolin-2-yl)methanimine] |  |  |  |  | 20.35 ± 0.0047 mg/mL |  |  | 100 µg/mL |  |  |  |  |  | 50 to 100 µg/mL | 1000 µg/mL |
| C(=N\Cc1cccs1)/c1ccc2ccccc2n1 [Complex L5, (E)-1-(quinolin-2-yl)-N-(thiophen-2-ylmethyl)methanimine] | 1.17 (M^−1) × 10^5 |  |  |  | 3.79 ± 0.0052 mg/mL |  |  |  |  |  |  |  | 50 µg/mL | 100 µg/mL |  |
